Experimental data reported in patent US10584124B2, “Crystalline forms” (Array BioPharma Inc., priority 2017, dated 2020).
Read-outs that look alike come from different tables or passages of the source.

What was measured:
[1] = Solubility of the free base of the compound of Formula I in solvents and mixed solvent systems; type: physicochemical; conditions: for solubility: thermodynamic from solid
Procedure: The solubility was also determined in mixed solvent systems such as DCM/EtOH, DMSO/EtOH, DMSO/water, THF/EtOH, and THF/water.
The solubility studies were conducted as follows. […] The samples were then heated to 60° C. Should the solids dissolve on heating, more freebase was added in 3 to 5 mg portions.

[2] = Screen of conditions for sulfuric and phosphoric acid salts of Formula I (freebase solubility observations); type: physicochemical; conditions: 25° C.
Source text: The use of sulfuric acid in 4:1 DCM/EtOH provided a filterable solid after stirring overnight.

## COc1ccc(CN2CCN(c3ccc(-c4cc(-c5cnn(C)c5)cn5ncc(C#N)c45)cn3)CC2)cn1 [freebase of the compound of Formula I, 4-(6-(4-((6-methoxypyridin-3-yl)methyl)piperazin-1-yl)pyridin-3-yl)-6-(1-methyl-1H-pyrazol-4-yl)pyrazolo[1,5-a]pyridine-3-carbonitrile]
[1]; 0.1M HCl, 25 °C, simulated gastric fluid, read-out: Solubility at 25° C.
  solubility: 1500 µg/mL
[1]; 10% THF in H2O, 25 °C, aqueous with cosolvent or surfactant or cyclodextrin, title: THF/H2O at room temperature, head: % THF in EtOH = 10, read-out: Solubility
  solubility: 150 µg/mL
[1]; 20% THF in H2O, 25 °C, aqueous with cosolvent or surfactant or cyclodextrin, title: THF/H2O at room temperature, head: % THF in EtOH = 20, read-out: Solubility
  solubility: 130 µg/mL
[1]; 25 °C, aqueous with cosolvent or surfactant or cyclodextrin, 20% DMSO in H2O, room temperature, read-out: Solubility
  solubility: 80 µg/mL
[1]; 25 °C, aqueous with cosolvent or surfactant or cyclodextrin, 30% DMSO in H2O, room temperature, read-out: Solubility
  solubility: 90 µg/mL
[1]; 25 °C, aqueous with cosolvent or surfactant or cyclodextrin, 40% DMSO in H2O, room temperature, read-out: Solubility
  solubility: 100 µg/mL
[1]; 25 °C, aqueous with cosolvent or surfactant or cyclodextrin, 50% DMSO in H2O, room temperature, read-out: Solubility
  solubility: 90 µg/mL
[1]; 25 °C, aqueous with cosolvent or surfactant or cyclodextrin, 60% DMSO in H2O, room temperature, read-out: Solubility
  solubility: 100 µg/mL
[1]; 25 °C, aqueous with cosolvent or surfactant or cyclodextrin, 70% DMSO in H2O, room temperature, read-out: Solubility
  solubility: 150 µg/mL
[1]; 25 °C, aqueous with cosolvent or surfactant or cyclodextrin, 80% DMSO in H2O, room temperature, read-out: Solubility
  solubility: 350 µg/mL
[1]; 25 °C, aqueous with cosolvent or surfactant or cyclodextrin, 90% DMSO in H2O, room temperature, read-out: Solubility
  solubility: 1520 µg/mL
[1]; 25 °C, organic solvent or mixture, 20% DCM in EtOH, room temperature, read-out: Solubility
  solubility: 260 µg/mL
[1]; 25 °C, organic solvent or mixture, 20% DMSO in EtOH, room temperature, read-out: Solubility
  solubility: 180 µg/mL
[1]; 25 °C, organic solvent or mixture, 20% THF in EtOH, room temperature, read-out: Solubility
  solubility: 340 µg/mL
[1]; 25 °C, organic solvent or mixture, 30% DCM in EtOH, room temperature, read-out: Solubility
  solubility: 870 µg/mL
[1]; 25 °C, organic solvent or mixture, 30% DMSO in EtOH, room temperature, read-out: Solubility
  solubility: 390 µg/mL
[1]; 25 °C, organic solvent or mixture, 30% THF in EtOH, room temperature, read-out: Solubility
  solubility: 550 µg/mL
[1]; 25 °C, organic solvent or mixture, 40% DCM in EtOH, room temperature, read-out: Solubility
  solubility: 2530 µg/mL
[1]; 25 °C, organic solvent or mixture, 40% DMSO in EtOH, room temperature, read-out: Solubility
  solubility: 610 µg/mL
[1]; 25 °C, organic solvent or mixture, 40% THF in EtOH, room temperature, read-out: Solubility
  solubility: 820 µg/mL
[1]; 25 °C, organic solvent or mixture, 50% DCM in EtOH, room temperature, read-out: Solubility
  solubility: 7420 µg/mL
[1]; 25 °C, organic solvent or mixture, 50% DMSO in EtOH, room temperature, read-out: Solubility
  solubility: 1140 µg/mL
[1]; 25 °C, organic solvent or mixture, 50% THF in EtOH, room temperature, read-out: Solubility
  solubility: 1380 µg/mL
[1]; 25 °C, organic solvent or mixture, 60% DCM in EtOH, room temperature, read-out: Solubility
  solubility: 16600 µg/mL
[1]; 25 °C, organic solvent or mixture, 60% DMSO in EtOH, room temperature, read-out: Solubility
  solubility: 1800 µg/mL
[1]; 25 °C, organic solvent or mixture, 60% THF in EtOH, room temperature, read-out: Solubility
  solubility: 1970 µg/mL
[1]; 25 °C, organic solvent or mixture, 70% DCM in EtOH, room temperature, read-out: Solubility
  solubility: 22700 µg/mL
[1]; 25 °C, organic solvent or mixture, 70% DMSO in EtOH, room temperature, read-out: Solubility
  solubility: 2570 µg/mL
[1]; 25 °C, organic solvent or mixture, 70% THF in EtOH, room temperature, read-out: Solubility
  solubility: 2510 µg/mL
[1]; 25 °C, organic solvent or mixture, 80% DCM in EtOH, room temperature, read-out: Solubility
  solubility: 29000 µg/mL
[1]; 25 °C, organic solvent or mixture, 80% DMSO in EtOH, room temperature, read-out: Solubility
  solubility: 4280 µg/mL
[1]; 25 °C, organic solvent or mixture, 80% THF in EtOH, room temperature, read-out: Solubility
  solubility: 3090 µg/mL
[1]; 25 °C, organic solvent or mixture, 90% DCM in EtOH, room temperature, read-out: Solubility
  solubility: 34200 µg/mL
[1]; 25 °C, organic solvent or mixture, 90% DMSO in EtOH, room temperature, read-out: Solubility
  solubility: 4440 µg/mL
[1]; 25 °C, organic solvent or mixture, 90% THF in EtOH, room temperature, read-out: Solubility
  solubility: 3180 µg/mL
[1]; 25 °C, organic solvent or mixture, 100% DMSO in EtOH, room temperature, read-out: Solubility
  solubility: 6960 µg/mL
[1]; 30% THF in H2O, 25 °C, aqueous with cosolvent or surfactant or cyclodextrin, title: THF/H2O at room temperature, head: % THF in EtOH = 30, read-out: Solubility
  solubility: 350 µg/mL
[1]; 40% THF in H2O, 25 °C, aqueous with cosolvent or surfactant or cyclodextrin, title: THF/H2O at room temperature, head: % THF in EtOH = 40, read-out: Solubility
  solubility: 1360 µg/mL
[1]; 50% THF in H2O, 25 °C, aqueous with cosolvent or surfactant or cyclodextrin, title: THF/H2O at room temperature, head: % THF in EtOH = 50, read-out: Solubility
  solubility: 2500 µg/mL
[1]; 60% THF in H2O, 25 °C, aqueous with cosolvent or surfactant or cyclodextrin, title: THF/H2O at room temperature, head: % THF in EtOH = 60, read-out: Solubility
  solubility: 3760 µg/mL
[1]; 70% THF in H2O, 25 °C, aqueous with cosolvent or surfactant or cyclodextrin, title: THF/H2O at room temperature, head: % THF in EtOH = 70, read-out: Solubility
  solubility: 6170 µg/mL
[1]; 80% THF in H2O, 25 °C, aqueous with cosolvent or surfactant or cyclodextrin, title: THF/H2O at room temperature, head: % THF in EtOH = 80, read-out: Solubility
  solubility: 6650 µg/mL
[1]; 90% THF in H2O, 25 °C, aqueous with cosolvent or surfactant or cyclodextrin, title: THF/H2O at room temperature, head: % THF in EtOH = 90, read-out: Solubility
  solubility: 6560 µg/mL
[1]; 100% DMSO (DMSO/H2O series), 25 °C, organic solvent or mixture, 100% DMSO in H2O, room temperature, read-out: Solubility
  solubility: 6960 µg/mL
[1]; 100% THF (THF/EtOH series), 25 °C, organic solvent or mixture, 100% THF in EtOH, room temperature, read-out: Solubility
  solubility: 2590 µg/mL
[1]; 100% THF (THF/H2O series), 25 °C, organic solvent or mixture, title: THF/H2O at room temperature, head: % THF in EtOH = 100, read-out: Solubility
  solubility: 2590 µg/mL
[1]; ACN
  Solids dissolve at 60° C.?: No
[1]; ACN, 25 °C, organic solvent or mixture, read-out: Solubility at 25° C.
  solubility: 330 µg/mL
[1]; DCE, 25 °C, organic solvent or mixture, read-out: Solubility at 25° C.
  solubility: 4600 µg/mL
[1]; EtOAc
  Solids dissolve at 60° C.?: No
[1]; EtOAc, 25 °C, organic solvent or mixture, read-out: Solubility at 25° C.
  solubility: 360 µg/mL
[1]; EtOH
  Solids dissolve at 60° C.?: No
[1]; EtOH, 25 °C, organic solvent or mixture, read-out: Solubility at 25° C.
  solubility: 40 µg/mL
[1]; IPA
  Solids dissolve at 60° C.?: No
[1]; MEK
  Solids dissolve at 60° C.?: No
[1]; MEK, 25 °C, organic solvent or mixture, read-out: Solubility at 25° C.
  solubility: 690 µg/mL
[1]; MeOH
  Solids dissolve at 60° C.?: No
[1]; MeOH, 25 °C, organic solvent or mixture, read-out: Solubility at 25° C.
  solubility: 70 µg/mL
[1]; THF
  Solids dissolve at 60° C.?: Yes
[1]; THF (1 mL), 60° C., solution turned milky at 13 mg
  freebase dissolved in THF at 60° C.: 10 to 13 mg
[1]; acetone
  Solids dissolve at 60° C.?: No
[1]; acetone, 25 °C, organic solvent or mixture, read-out: Solubility at 25° C.
  solubility: 440 µg/mL
[1]; aqueous with cosolvent or surfactant or cyclodextrin, 10% DMSO in H2O, room temperature, read-out: Solubility
  solubility: 90 µg/mL
[1]; iPAc
  Solids dissolve at 60° C.?: No
[1]; iPAc, 25 °C, organic solvent or mixture, read-out: Solubility at 25° C.
  solubility: 250 µg/mL
[1]; organic solvent or mixture, 0% DCM in EtOH, room temperature, read-out: Solubility
  solubility: 50 µg/mL
[1]; organic solvent or mixture, 0% DMSO in EtOH, room temperature, read-out: Solubility
  solubility: 50 µg/mL
[1]; organic solvent or mixture, 10% DCM in EtOH, room temperature, read-out: Solubility
  solubility: 60 µg/mL
[1]; organic solvent or mixture, 10% DMSO in EtOH, room temperature, read-out: Solubility
  solubility: 90 µg/mL
[1]; organic solvent or mixture, 10% THF in EtOH, room temperature, read-out: Solubility
  solubility: 290 µg/mL
[1]; organic solvent or mixture, 100% DCM in EtOH, room temperature, read-out: Solubility
  solubility: 17300 µg/mL
[1]; organic solvent or mixture, DMA, 60° C., read-out: Solubility at 60° C.
  solubility: > 40000 µg/mL
[1]; organic solvent or mixture, THF, 60° C., read-out: Solubility at 60° C.
  solubility: 10200 to 13000 µg/mL
[1]; toluene
  Solids dissolve at 60° C.?: No
[1]; toluene, 25 °C, organic solvent or mixture, read-out: Solubility at 25° C.
  solubility: 350 µg/mL
[1]; water, 25 °C, water, read-out: Solubility at 25° C.
  solubility: 70 µg/mL
[2]; 4:1 DCM/EtOH (100 vol)
  Solubility (in words): dissolve
[2]; THF, EtOH, and 1:1 DCM/EtOH (100 vol)
  Solubility (in words): limited solubility
